Experimental data published in patent US6492515B2, “4,4-disubstituted-1, 4-dihydro-2H-3, 1-benzoxazin-2-ones useful as HIV reverse transcriptase inhibitors and intermediates and processes for making the same” (Bristol-Myers Squibb Pharma Company, priority 1996, dated 2002).

Assays:
[1] = biological target: HIV-1 reverse transcriptase (Human immunodeficiency virus type 1 group M subtype B, UniProt P04585); assay: Inhibition of HIV reverse transcriptase (statement in background); format: biochemical; conditions: metabolite of NNRTI from rat, monkey and human microsomes

| melting point | SMILES | inhibitor of HIV reverse transcriptase [1] |
| --- | --- | --- |
| 185.8 °C | O=C1Nc2ccc(Cl)cc2[C@@](C#Cc2ccccn2)(C(F)(F)F)O1 [Example 23] | – |
| – | O=C1Nc2c(O)cc(Cl)cc2[C@@](C#CC2CC2)(C(F)(F)F)O1 [Example 2, (−)-6-Chloro-4-(cyclopropylethynyl)-8-hydroxy-4-(trifluoromethyl)-1,4-dihydro-2H-3,1-benzoxazin-2-one] | potent inhibitor |
| 169 to 171 °C | O=C1Nc2c(F)cc(Cl)cc2C(C#CC2CC2)(C(F)(F)F)O1 (racemic) [Example 4, (+/−)-6-Chloro-4-(cyclopropylethynyl)-8-fluoro-4-(trifluoromethyl)-1,4-dihydro-2H-3,1-benzoxazin-2-one] | – |
| 138 to 138.5 °C | Cc1ccc2c(c1)C(C#CC1CC1)(C(C)C)OC(=O)N2 (racemic) [Example 5, (+/−)-4-Cyclopropylethynyl-4-isopropyl-6-methyl-1,4-dihydro-2H-3,1-benzoxazin-2-one] | – |
| 197 to 200 °C | CC(=O)c1ccc2c(c1)C(C#CC1CC1)(C(F)(F)F)OC(=O)N2 (racemic) [Example 7, (+/−)-6-Acetyl-4-cyclopropylethynyl-4-trifluoromethyl-1,4-dihydro-2H-3,1-benzoxazin-2-one] | – |
